Laboratory results as given in PubChem BioAssay (NCI).
Where “and” joins values, the source holds several entries; their conditions need not be identical. Equal values may be shown once.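 1) Cells in 96-well plates. 2) Compound, 48 h, 5 concentrations. 3) Linear interpolation between surrounding doses. 4) Unreached endpoint = highest concentration. Here, GI50 denotes the concentration required for 50% inhibition of growth. Definition used: TGI = concentration required for complete inhibition of growth.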

Each compound was assayed on MDA-MB-468 breast (assay: NCI-60 cell line screen, 48 h).

Row | Structure (SMILES) | GI50 | TGI
1 | COc1ccc(/C=C/C(=O)/C=C(/C=C/c2ccc(OC)c(OC)c2)OB(F)F)cc1OC | 578 nM | 2890 nM
2 | O=C1c2[nH]cc(CN[C@@H]3CCCN3)c2C(=O)c2c1c(O)c1ccccc1c2O | 1180 nM | 2650 nM
3 | C[C@@H](Oc1cc(-c2cnn(C3CCNCC3)c2)cnc1N)c1c(Cl)ccc(F)c1Cl | 1060 nM | 3720 nM
4 | Cn1cc(-c2nc(-c3c[nH]c4ncccc34)cs2)c2cc(Cl)ccc21 | 316 nM | 2340 nM
5 | O=C(CSc1nc2ccc([N+](=O)[O-])cc2[nH]1)Nc1cccc(C(F)(F)F)c1 | 964 nM | 4710 nM
6 | COc1cc(-c2cc(C(=O)Nc3nc4ccccc4s3)nc3cc(-c4ccccc4)nn23)cc(OC)c1OC | 13900 nM | 38000 nM
7 | Nc1nc(-c2cccc([N+](=O)[O-])c2)c(N=Nc2ccccc2[N+](=O)[O-])s1 | 2700 nM | 26200 nM
8 | COc1cc(-c2nnc(SCc3ccc(O)c4ncccc34)n2-c2ccccc2)cc(OC)c1OC | 251 nM | 2530 nM
9 | C=C1C(=O)O[C@H]2[C@H]1CC/C(COC(=O)/C=C/c1cccnc1)=C\CC[C@@]1(C)O[C@@H]21 | 831 nM | 4300 nM
10 | Cc1c(C(=O)CCl)c(=O)n(-c2ccccc2)n1C | 675 nM | 3080 nM
11 | COC(=O)/C=C1\SC(=Nc2ccc(C(F)(F)F)cc2)N(CCc2c[nH]c3ccccc23)C1=O | 2080 nM | 4050 nM
12 | COc1cccc(-c2nc(-c3ccc(NS(=O)(=O)c4ccccc4)cc3)[nH]c2-c2ccnc(Br)c2)c1 | 1980 nM | 5230 nM
13 | Clc1ccc(N2COOC3(OOC2)C2CC4CC(C2)CC3C4)cc1 | 5800 nM | > 67800 nM
14 | Cc1ccc2c(/C=C/C(=O)c3cc(CN4CCOCC4)c(O)c4nc(C)ccc34)cc(CN3CCOCC3)c(O)c2n1 | 434 nM | 2020 nM
15 | O=c1oc2ccccc2c(Cl)c1Cl | 1850 nM | 4320 nM
16 | OCc1ccc(N(Cc2ccc(F)cc2)C2CCC2)cc1Cl | 17.6 nM | 46.4 nM

Row | Structure (SMILES) | GI50 | TGI
17 | COc1ccc(/C=C\c2cc(OC)c(OC)c(OC)c2)cc1NC(=O)[C@@H](N)CO | < 17.8 nM | 1270 nM
18 | CCOC(=O)Oc1c(OC)cc(C(=O)c2ccc(OC)c(OC(=O)CCl)c2OC)cc1OC | 2490 nM | > 100000 nM
19 | COc1ccc(-n2c(-c3ccc(NC(=O)CCCl)cc3)nnc2-c2cc(OC)c(OC)c(OC)c2)cc1 | 2080 nM | 5680 nM
20 | O=S(=O)(Nc1cccc2ccccc12)c1ccc(-c2cnc(C3CC3)o2)cc1 | 43.2 nM | 12800 nM
21 | Nc1nc(N)c2c(n1)NC(c1ccc(F)cc1)CC(c1ccc(Nc3nc(NCCO)nc(Nc4ccc(Cl)cc4)n3)cc1)=N2 (centres undefined) | 1480 nM | 3150 nM
22 | O=C(CCl)Nc1ccccc1SCc1cc(Cl)cc2c1OCOC2 | 1930 nM | 4500 nM
23 | COc1ccc(-c2nc3sccn3c2/C=C/C(=O)c2cc(OC)c(OC)c(OC)c2)cc1OC | 2150 nM | 5020 nM
24 | O=C1NC(=O)[C@@H](c2cn3c4c(cccc24)CCC3)[C@@H]1c1c[nH]c2ccccc12 | 306 nM and 260 nM | > 10000 nM and 3810 nM
25 | COc1c(O)cc2oc3cc(O)c(CC=C(C)C)c(O)c3c(=O)c2c1C/C=C(\C)CCC=C(C)C | 7160 nM | 12500 nM
26 | Clc1ccc(Nc2ccnc(NCCNc3ccnc4cc(Cl)ccc34)n2)cc1 | 1060 nM | 2340 nM
27 | O=C1C(Cl)=C(Oc2ccccc2)C(=O)c2ccccc21 | 1930 nM | 3750 nM
28 | O=C(Nc1ncc([N+](=O)[O-])s1)c1cccc([N+](=O)[O-])c1 | 3420 nM | 38700 nM
29 | O=P(Oc1ccccc1)(Oc1ccccc1)C(O)c1ccccc1 (centres undefined) | 35000 nM | > 100000 nM
30 | CS(=O)(=O)c1ccc(Oc2nccc(-c3c(-c4ccc(F)cc4)ncn3C3CCNCC3)n2)cc1 | 19100 nM | > 25000 nM
31 | c1ccc(Oc2c3ccccc3nc3ccccc23)cc1 | 1350 nM | 4620 nM
32 | c1ccc2c(NCCCn3ccnc3)c3oc4ccccc4c3nc2c1 | 1660 nM | 3420 nM
